One test concerns the target GDP-bound KRAS protein (aa 1-169), containing both G12C and C118A amino acid substitutions (Homo sapiens, UniProt P01116, C118A/G12C). Kind of test: Coupled nucleotide exchange assay (SOS-mediated, AlphaScreen). The test is classed as biochemical. To be noted: 5 min compound pre-incubation.
Chain of GDP-bound KRAS protein (aa 1-169), containing both G12C and C118A amino acid substitutions (P01116 1-169 isoform P01116-2 G12C/C118A): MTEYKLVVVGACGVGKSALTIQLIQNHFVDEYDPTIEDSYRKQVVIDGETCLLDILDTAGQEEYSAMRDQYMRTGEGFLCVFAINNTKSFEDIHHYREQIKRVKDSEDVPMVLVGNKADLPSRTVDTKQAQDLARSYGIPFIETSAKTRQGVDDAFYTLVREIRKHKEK
Turning to `C=CC(=O)N1CCN(c2nc(=O)n(-c3ccccc3C(C)C)c3nc(-c4ccccc4F)c(OC)nc23)[C@@H](C)C1` [Example 109, 7-(2-Fluorophenyl)-6-methoxy-4-((2S)-2-methyl-4-(2-propenoyl)-1-piperazinyl)-1-(2-(2-propanyl)phenyl)-2(1H)-pteridinone], the “Coupled exchange IC50 (5 min)” value is 1.32 | nda μM.

`C=CC(=O)N1CCN(c2nc(C)c(C(=O)N(C(C)C)C(C)C)c3nc(-c4ccccc4F)c(Cl)cc23)CC1` [Example 144, 3-Chloro-2-(2-fluorophenyl)-7-methyl-N,N-di(2-propanyl)-5-(4-(2-propenoyl)-1-piperazinyl)-1,6-naphthyridine-8-carboxamide]: the “Coupled exchange IC50 (5 min)” value was 8.31 | nda μM.

As to `C=CC(=O)N1CCN(c2nc(=O)n(-c3c(CO)cccc3C(C)C)c3nc(-c4ccccc4F)c(Cl)cc23)[C@@H](C)C1` (single isomer, unassigned) [Example 55-43-1], the “Coupled exchange IC50 (5 min)” value is listed as 2.87 | nda μM.

For `C=CC(=O)N1CCN(c2nc(=O)n(-c3c(CC)cccc3CC)c3nc(N4CCC(C)C4)c(Cl)cc23)[C@@H](C)C1` (stereo partly drawn) [Example 66-10, 6-chloro-1-(2,6-diethylphenyl)-4-((2S)-2-methyl-4-(2-propenoyl)-1-piperazinyl)-7-(3-methyl-1-pyrrolidinyl)pyrido[2,3-d]pyrimidin-2(1H)-one], the “Coupled exchange IC50 (5 min)” value is on record as 26.4 | nda μM.

Regarding `C=CC(=O)N1CCC(Oc2nc(=O)n(-c3c(C)ccnc3C(C)C)c3nc(-c4ccccc4F)c(Cl)cc23)C1` (racemic) [Example 79-2, (M)-6-chloro-7-(2-fluorophenyl)-1-(4-methyl-2-(2-propanyl)-3-pyridinyl)-4-((1-(2-propenoyl)-3-pyrrolidinyl)oxy)pyrido[2,3-d]pyrimidin-2(1H)-one], the “Coupled exchange IC50 (5 min)” value is 28.6 | nda μM.

With `C=CC(=O)N1CCN(c2nc(=O)n(-c3ccccc3)c3nc(-c4c(O)cccc4F)c(Cl)cc23)[C@@H](C)C1` [Example 100, 6-Chloro-7-(2-fluoro-6-hydroxyphenyl)-4-((2S)-2-methyl-4-(2-propenoyl)-1-piperazinyl)-1-phenylpyrido[2,3-d]pyrimidin-2(1H)-one], the “Coupled exchange IC50 (5 min)” value is on record as 3.45 | nda μM.

For the compound `C=CC(=O)N1CCN(c2nc(=O)n(-c3c(C)cccc3C3CC3)c3nc(-c4c(O)cccc4F)c(F)cc23)[C@@H](C)C1` (single isomer, unassigned) [Example 58-13-1], the “Coupled exchange IC50 (5 min)” value is recorded as 1.56 | nda μM.

As to `C=CC(=O)N1CCN(c2nc(=O)n(-c3ccccc3C(C)C)c3nc(-c4c(C)noc4C)c(Cl)cc23)[C@@H](C)C1` [Example 54-44, 6-chloro-7-(3,5-dimethyl-1,2-oxazol-4-yl)-4-((2S)-2-methyl-4-(2-propenoyl)-1-piperazinyl)-1-(2-(2-propanyl)phenyl)pyrido [2,3-d]pyrimidin-2(1H)-one], the “Coupled exchange IC50 (5 min)” value was 3.9 | nda μM.

Turning to `C=CC(=O)N1CCN(c2nc(=O)n(-c3nccc4c3CCCC4)c3nc(-c4c(O)cccc4F)c(Cl)cc23)[C@@H](C)C1` [Example 55-25, 6-chloro-7-(2-fluoro-6-hydroxyphenyl)-4-((2S)-2-methyl-4-(2-propenoyl)-1-piperazinyl)-1-(5,6,7,8-tetrahydro-1-isoquinolinyl)pyrido[2,3-d]pyrimidin-2(1H)-one], the “Coupled exchange IC50 (5 min)” value was 2.29 | nda μM.

Consider `C=CC(=O)N1CCN(c2nc(=O)n(-c3c(C)cc(CO)cc3C(C)C)c3nc(-c4ccccc4F)c(Cl)cc23)[C@@H](C)C1` (single isomer, unassigned) [Example 80-2-1], for which the “Coupled exchange IC50 (5 min)” value was 0.824 | nda μM.

On to `C=CC(=O)N1CCN(c2nc(=O)n(-c3c(C(C)C)ncnc3N(C)C)c3nc(-c4ccccc4F)c(Cl)cc23)[C@@H](C)C1` (single isomer, unassigned) [Example 140-2], for which the “Coupled exchange IC50 (5 min)” value was 0.677 | nda μM.

As to `C=CC(=O)N1CCN(c2nc(=O)n(-c3c(C)cccc3CC)c3nc(-c4ccccc4F)c(F)cc23)[C@@H](C)C1` (single isomer, unassigned) [Example 57-13-1], the “Coupled exchange IC50 (5 min)” value is given as 1.46 | nda μM.

`C=CC(=O)N1CCN(c2nc(=O)n(-c3nccnc3C(C)C)c3nc(-c4ccccc4F)c(Cl)cc23)[C@@H](C)C1` [Example 54-20]: the “Coupled exchange IC50 (5 min)” value was 2.26 | nda μM.

For the compound `C=CC(=O)N1CCN(c2nc(=O)n(-c3c(C)ccnc3C(C)C)c3nc(-c4ccccc4F)c(Cl)nc23)[C@@H](C)C1` (single isomer, unassigned) [Example 111-2], the “Coupled exchange IC50 (5 min)” value is 0.86 | nda μM.

With `C=CC(=O)N1CCN(c2nc(=O)n(-c3cn[nH]c3C(C)C)c3nc(-c4ccccc4F)c(Cl)cc23)[C@@H](C)C1` [Example 55-42, 6-chloro-7-(2-fluorophenyl)-4-((2S)-2-methyl-4-(2-propenoyl)-1-piperazinyl)-1-(5-(2-propanyl)-1H-pyrazol-4-yl)pyrido[2,3-d]pyrimidin-2(1H)-one], the “Coupled exchange IC50 (5 min)” value is 0.351 | nda μM.

Consider `C=CC(=O)N1CCN(c2nc(CN(C)C)c(-c3ccccc3C(C)C)c3nc(-c4ccccc4F)c(Cl)cc23)CC1` [86-2, 1-(4-(3-chloro-7-((dimethylamino)methyl)-2-(2-fluorophenyl)-8-(2-(2-propanyl)phenyl)-1,6-naphthyridin-5-yl)-1-piperazinyl)-2-propen-1-one], for which the “Coupled exchange IC50 (5 min)” value was 6.6 | nda μM.

On to `C=CC(=O)N1CCN(c2nc(=O)n(-c3ccccc3C(C)C)c3nc(-c4ccccc4F)c(C)cc23)[C@@H](C)C1` (single isomer, unassigned) [Example 74-1-1], for which the “Coupled exchange IC50 (5 min)” value is 2.16 | nda μM.

With `C=CC(=O)NCCNc1nc(=O)n(-c2c(C)ccnc2C(C)C)c2nc(-c3ccccc3F)c(Cl)cc12` (single isomer, unassigned) [Example 78-12, (M)-N-(2-((6-chloro-7-(2-fluorophenyl)-1-(4-methyl-2-(2-propanyl)-3-pyridinyl)-2-oxo-1,2-dihydropyrido[2,3-d]pyrimidin-4-yl)amino)ethyl)-2-propenamide], the “Coupled exchange IC50 (5 min)” value was 15.4 | nda μM.

As to `C=CC(=O)N1CCN(c2nc(=O)n(-c3c(C)cccc3C(C)C)c3nc(-c4nc(N)cc5ccccc45)c(F)cc23)[C@@H](C)C1` (single isomer, unassigned) [Example 71-2-1], the “Coupled exchange IC50 (5 min)” value is given as 8.7 | nda μM.

Take `C=CC(=O)N1CCN(c2nc(=O)n(-c3c(C)ccnc3C(C)C)c3nc(-c4ccccc4F)c(F)cc23)[C@@H](C)C1` (single isomer, unassigned) [Example 58-4-2]: the “Coupled exchange IC50 (5 min)” value is on record as 4.82 | nda μM.

With `C=CC(=O)N1CCN(c2nc(=O)n(-c3c(C)cnn3C(C)(C)C)c3nc(-c4ccccc4F)c(Cl)cc23)[C@@H](C)C1` [Example 55-38, 6-chloro-7-(2-fluorophenyl)-1-(4-methyl-1-(2-methyl-2-propanyl)-1H-pyrazol-5-yl)-4-((2S)-2-methyl-4-(2-propenoyl)-1-piperazinyl)pyrido[2.3-d]pyrimidin-2(1H)-one], the “Coupled exchange IC50 (5 min)” value is given as 0.377 | nda μM.

Consider `C=CC(=O)N1CCN(c2nc(=O)n(-c3c(C)ccnc3N(C)C)c3nc(-c4ccccc4F)c(Cl)cc23)[C@@H](C)C1` [Example 55-7], for which the “Coupled exchange IC50 (5 min)” value is on record as 0.806 | nda μM.

On to `C=CC(=O)N1CCN(c2nc(=O)n(-c3c(C)ccnc3C(C)C)c3nc(-c4cc(O)ccc4F)c(F)cc23)[C@@H](C)C1` (single isomer, unassigned) [Example 58-5-1], for which the “Coupled exchange IC50 (5 min)” value is listed as 5.6 | nda μM.

Turning to `C=CC(=O)N1CCN(c2nc(=O)n(-c3ccccc3C(C)C)c3nc(-c4c(O)cccc4F)c(F)cc23)[C@@H](C)C1` [Example 57-6, 6-fluoro-7-(2-fluoro-6-hydroxyphenyl)-4-((2S)-2-methyl-4-(2-propenoyl)-1-piperazinyl)-1-(2-(2-propanyl)phenyl)pyrido[2,3-d]pyrimidin-2(1H)-one], the “Coupled exchange IC50 (5 min)” value was 1.67 | nda μM.

For `C=CC(=O)N1CCN(c2nc(=O)c(-c3ccccc3C(C)C)c3cc(-c4ccccc4F)c(C)nn23)[C@@H](C)C1` [Example 81-3, 3-(2-fluorophenyl)-2-methyl-8-((2S)-2-methyl-4-(2-propenoyl)-1-piperazinyl)-5-(2-(2-propanyl)phenyl)-6H-pyrimido[1,6-b]pyridazin-6-one], the “Coupled exchange IC50 (5 min)” value was 2.87 | nda μM.

Take `C=CC(=O)N1CCN(c2nc(=O)n(-c3c(CC)cccc3CC)c3nc(N4CCC[C@@H]4CO)c(Cl)cc23)[C@@H](C)C1` [Example 66-9, 6-chloro-1-(2,6-diethylphenyl)-7-((2R)-2-(hydroxymethyl)-1-pyrrolidinyl)-4-((2S)-2-methyl-4-(2-propenoyl)-1-piperazinyl)pyrido[2,3-d]pyrimidin-2(1H)-one]: the “Coupled exchange IC50 (5 min)” value was 99.5 | nda μM.

Still in this test, the particulars now being: read-out: Coupled exchange IC50 (5 min); 5 min compound pre-incubation.
On to `C=CC(=O)N1CC(Oc2nc(=O)n(-c3c(C)ccnc3C(C)C)c3nc(-c4ccccc4F)c(Cl)cc23)C1` (atropisomer, axis not shown; (M)) [Example 79-1, (M)-6-Chloro-7-(2-fluorophenyl)-1-(4-methyl-2-(2-propanyl)-3-pyridinyl)-4-((1-(2-propenoyl)-3-azetidinyl)oxy)pyrido[2,3-d]pyrimidin-2(1H)-one], for which the IC50 is 3.29 µM.

As to `C=CC(=O)N1CCN(c2nc(CO)c(-c3ccccc3C(C)C)c3nc(-c4ccccc4F)c(Cl)cc23)CC1` [Example 85-1], the IC50 came out at 6.34 µM.

(Values after patent US11090304B2 (Amgen Inc., priority 2018, dated 2021).)
